In the NIST ThermoML archive (doi:10.1016/j.jct.2018.02.018):

Legend:
[1] = xn = mol fraction of the nth substance listed; conditions: 100 kPa, Liquid; for speed of sound: Frequency=3 MHz, Single path-length method; for mass density: Vibrating tube method
[2] = refractive index (Na D-line) (dimensionless); xn = mol fraction of the nth substance listed; conditions: 100 kPa, Liquid, Standard Abbe refractometry

CN(C)CCCO [3-dimethylamino-1-propanol] + C[S+](C)[O-]
Conditions	mass density, [1] [kg/m3]	refractive index, [2]	speed of sound, [1] [m/s]
293.15 K, x2 = 0	885	1.437	1395.8
293.15 K, x2 = 0.0517	891	1.438	1397.6
293.15 K, x2 = 0.0986	898	1.439	1398.4
293.15 K, x2 = 0.1998	911	1.442	1401.4
293.15 K, x2 = 0.3	927	1.444	1405.2
293.15 K, x2 = 0.3998	944	1.447	1411.3
293.15 K, x2 = 0.5031	963	1.451	1418.8
293.15 K, x2 = 0.5988	983	1.455	1428.3
293.15 K, x2 = 0.6998	1007	1.46	1441.3
293.15 K, x2 = 0.7918	1032	1.465	1456
293.15 K, x2 = 0.899	1065	1.472	1478
293.15 K, x2 = 0.9494	1082	1.476	1489.6
303.15 K, x2 = 0	877	1.433	1358.8
303.15 K, x2 = 0.0517	883	1.434	1360.9
303.15 K, x2 = 0.0986	889	1.435	1361.8
303.15 K, x2 = 0.1998	903	1.437	1365.3
303.15 K, x2 = 0.3	918	1.44	1369.9
303.15 K, x2 = 0.3998	935	1.443	1375.7
303.15 K, x2 = 0.5031	954	1.447	1383.9
303.15 K, x2 = 0.5988	974	1.451	1393.6
303.15 K, x2 = 0.6998	998	1.456	1406.9
303.15 K, x2 = 0.7918	1023	1.46	1421.8
303.15 K, x2 = 0.899	1055	1.467	1444.5
303.15 K, x2 = 0.9494	1072	1.471	1455.9
313.15 K, x2 = 0	869	1.429	1322.1
313.15 K, x2 = 0.0517	875	1.43	1324.4
313.15 K, x2 = 0.0986	881	1.431	1325.4
313.15 K, x2 = 0.1998	895	1.433	1328.9
313.15 K, x2 = 0.3	910	1.436	1334.4
313.15 K, x2 = 0.3998	926	1.439	1340.7
313.15 K, x2 = 0.5031	946	1.443	1349.3
313.15 K, x2 = 0.5988	965	1.447	1359.3
313.15 K, x2 = 0.6998	989	1.451	1372.9
313.15 K, x2 = 0.7918	1013	1.456	1388.1
313.15 K, x2 = 0.899	1046	1.463	1410.9
313.15 K, x2 = 0.9494	1062	1.467	1422.3
323.15 K, x2 = 0	860	1.425	1285.7
323.15 K, x2 = 0.0517	867	1.426	1288.2
323.15 K, x2 = 0.0986	873	1.427	1289.5
323.15 K, x2 = 0.1998	886	1.429	1293.8
323.15 K, x2 = 0.3	901	1.432	1299.3
323.15 K, x2 = 0.3998	918	1.435	1306.1
323.15 K, x2 = 0.5031	937	1.439	1315.1
323.15 K, x2 = 0.5988	956	1.443	1325.5
323.15 K, x2 = 0.6998	980	1.447	1339.4
323.15 K, x2 = 0.7918	1004	1.452	1354.7
323.15 K, x2 = 0.899	1036	1.459	1377.6
323.15 K, x2 = 0.9494	1052	1.462	1389
